Test results: patent US12404262B2 (priority 2021, dated 2025)
≈ marks a conversion by molar mass, not a printed value. Read-outs that look alike come from different tables or passages of the source.

Legend:
physchem = details: 25 °C, thermodynamic from solid
[1] = Oral bioavailability PK in dog; format: in vivo; details: dog (Beagle), oral gavage, solution vehicle 5% ethanol, 20% propylene glycol, 75% water; based on exposure of Intermediate 5 in plasma
[2] = 0.1N HCl, 1.0% DMSO, 24-hour incubation at ambient temperature, maximum theoretical 100 μM, first value of the cell
[3] = 1×PBS buffer (pH 7.4), 1.0% DMSO, 24-hour incubation at ambient temperature, maximum theoretical 100 μM, second value of the cell

Row | SMILES | pH 2 solubility [2] [μM] | pH 7 solubility [3] [μM] | solubility (physchem; fassif) [µg/mL] | pH 2 solubility (pH 2) | pH 7 solubility (pH 7.4) | solubility (physchem; fessif) [µg/mL] | Dog F % (solution) [1] [%]
1 | C[C@@H](C(=O)O)N(CCOC(=O)N(c1nn(CC(F)(F)F)c2c(-c3ccc(C#CC(C)(C)S(C)(=O)=O)nc3[C@H](Cc3cc(F)cc(F)c3)NC(=O)Cn3nc(C(F)(F)F)c4c3C(F)(F)[C@@H]3C[C@H]43)ccc(Cl)c12)S(C)(=O)=O)C(=O)OCOP(=O)(O)O [Compound 132, N-(2-(((4-chloro-7-(2-((S)-1-(2-((3bS,4aR)-5,5-difluoro-3-(trifluoromethyl)-3b,4,4a,5-tetrahydro-1H-cyclopropa[3,4]cyclopenta[1,2-c]pyrazol-1-yl)acetamido)-2-(3,5-difluorophenyl)ethyl)-6-(3-methyl-3-(methylsulfonyl)but-1-yn-1-yl)pyridin-3-yl)-1-(2,2,2-trifluoroethyl)-1H-indazol-3-yl)(methylsulfonyl)carbamoyl)oxy)ethyl)-N-(((phosphonooxy)methoxy)carbonyl)-L-alanine] | 1 | 79 | 1630 (≈ 1270 µM) |  |  |  | 
2 | CN(CCOC(=O)N(c1nn(CC(F)(F)F)c2c(-c3ccc(C#CC(C)(C)S(C)(=O)=O)nc3[C@H](Cc3cc(F)cc(F)c3)NC(=O)Cn3nc(C(F)(F)F)c4c3C(F)(F)[C@@H]3C[C@H]43)ccc(Cl)c12)S(C)(=O)=O)C(=O)OCOP(=O)(O)O [Compound 133, (phosphonooxy)methyl (2-(((4-chloro-7-(2-((S)-1-(2-((3bS,4aR)-5,5-difluoro-3-(trifluoromethyl)-3b,4,4a,5-tetrahydro-1H-cyclopropa[3,4]cyclopenta[1,2-c]pyrazol-1-yl)acetamido)-2-(3,5-difluorophenyl)ethyl)-6-(3-methyl-3-(methylsulfonyl)but-1-yn-1-yl)pyridin-3-yl)-1-(2,2,2-trifluoroethyl)-1H-indazol-3-yl)(methylsulfonyl)carbamoyl)oxy)ethyl)(methyl)carbamate] | 1 | 81 | 194 (≈ 159 µM) |  |  |  | 
3 | CC(C)(C#Cc1ccc(-c2ccc(Cl)c3c(N(C(=O)OCCN(CC(=O)O)C(=O)OCOP(=O)(O)O)S(C)(=O)=O)nn(CC(F)(F)F)c23)c([C@H](Cc2cc(F)cc(F)c2)NC(=O)Cn2nc(C(F)(F)F)c3c2C(F)(F)[C@@H]2C[C@H]32)n1)S(C)(=O)=O [Compound 134] | 1 | 100 | 2640 (≈ 2080 µM) |  |  |  | 
4 | CC(C)(C#Cc1ccc(-c2ccc(Cl)c3c(N(C(=O)OCCN(CCC(=O)O)C(=O)OCOP(=O)(O)O)S(C)(=O)=O)nn(CC(F)(F)F)c23)c([C@H](Cc2cc(F)cc(F)c2)NC(=O)Cn2nc(C(F)(F)F)c3c2C(F)(F)[C@@H]2C[C@H]32)n1)S(C)(=O)=O [Compound 135, 3-((2-(((4-chloro-7-(2-((S)-1-(2-((3bS,4aR)-5,5-difluoro-3-(trifluoromethyl)-3b,4,4a,5-tetrahydro-1H-cyclopropa[3,4]cyclopenta[1,2-c]pyrazol-1-yl)acetamido)-2-(3,5-difluorophenyl)ethyl)-6-(3-methyl-3-(methylsulfonyl)but-1-yn-1-yl)pyridin-3-yl)-1-(2,2,2-trifluoroethyl)-1H-indazol-3-yl)(methylsulfonyl)carbamoyl)oxy)ethyl)(((phosphonooxy)methoxy)carbonyl)amino)propa noic acid] | 1 | 100 | 1290 (≈ 1010 µM) |  |  |  | 
5 | CC(C)(C#Cc1ccc(-c2ccc(Cl)c3c(N(C(=O)O[C@H](CNC(=O)OCOP(=O)(O)O)CC(=O)O)S(C)(=O)=O)nn(CC(F)(F)F)c23)c([C@H](Cc2cc(F)cc(F)c2)NC(=O)Cn2nc(C(F)(F)F)c3c2C(F)(F)[C@@H]2C[C@H]32)n1)S(C)(=O)=O [Compound 136, (S)-3-(((4-chloro-7-(2-((S)-1-(2-((3bS,4aR)-5,5-difluoro-3-(trifluoromethyl)-3b,4,4a,5-tetrahydro-1H-cyclopropa[3,4]cyclopenta[1,2-c]pyrazol-1-yl)acetamido)-2-(3,5-difluorophenyl)ethyl)-6-(3-methyl-3-(methylsulfonyl)but-1-yn-1-yl)pyridin-3-yl)-1-(2,2,2-trifluoroethyl)-1H-indazol-3-yl)(methylsulfonyl)carbamoyl)oxy)-4-((((phosphonooxy)methoxy)carbonyl)amino)butanoic acid] |  |  | 1490 (≈ 1180 µM) | 3/57 μM | 3/57 μM | 2910 (≈ 2300 µM) | 
6 | CC(C)(C#Cc1ccc(-c2ccc(Cl)c3c(N(C(=O)OCCNC(=O)OCOP(=O)(O)O)S(C)(=O)=O)nn(CC(F)(F)F)c23)c([C@H](Cc2cc(F)cc(F)c2)NC(=O)Cn2nc(C(F)(F)F)c3c2C(F)(F)[C@@H]2C[C@H]32)n1)S(C)(=O)=O [Compound 137, 2-((((phosphonooxy)methoxy)carbonyl)amino)ethyl (4-chloro-7-(2-((S)-1-(2-((3bS,4aR)-5,5-difluoro-3-(trifluoromethyl)-3b,4,4a,5-tetrahydro-1H-cyclopropa[3,4]cyclopenta[1,2-c]pyrazol-1-yl)acetamido)-2-(3,5-difluorophenyl)ethyl)-6-(3-methyl-3-(methylsulfonyl)but-1-yn-1-yl)pyridin-3-yl)-1-(2,2,2-trifluoroethyl)-1H-indazol-3-yl)(methylsulfonyl)carbamate] | 1 | 85 | 950 (≈ 786 µM) |  |  |  | 
7 | CC(C)(C#Cc1ccc(-c2ccc(Cl)c3c(NS(C)(=O)=O)nn(CC(F)(F)F)c23)c([C@H](Cc2cc(F)cc(F)c2)NC(=O)Cn2nc(C(F)(F)F)c3c2C(F)(F)[C@@H]2C[C@H]32)n1)S(C)(=O)=O [Intermediate 5, N—((S)-1-(3-(4-chloro-3-(methylsulfonamido)-1-(2,2,2-trifluoroethyl)-1H-indazol-7-yl)-6-(3-methyl-3-(methylsulfonyl)but-1-yn-1-yl)pyridin-2-yl)-2-(3,5-difluorophenyl)ethyl)-2-((3bS,4aR)-5,5-difluoro-3-(trifluoromethyl)-3b,4,4a,5-tetrahydro-1H-cyclopropa[3,4]cyclopenta[1,2-c]pyrazol-1-yl)acetamide, reference compound] | 0.11 | 0.32 |  |  |  |  | 16
